Experimental data taken from patent US11607422B2, “Uttroside B and derivatives thereof as therapeutics for hepatocellular carcinoma” (Rajiv Gandhi Centre for Biotechnology, an Autonomous …, priority 2016, dated 2023).
Like-named read-outs stand apart in the source and are kept apart here.

Assays:
[1] = test system: PARP and caspase 9 in HepG2 cells; test: Western blot of PARP and caspase 9 cleavage with inhibition of autophagy; format: cell-based, human; conditions: for effect of autophagy inhibitor on Uttroside B-induced caspase 9 activation: HepG2, Western blot; for effect of autophagy inhibitor on Uttroside B-induced cleavage of PARP: HepG2, pretreatment with inhibitor
Experimental: Western blot analysis. Approximately 0.5×10^6 cells were grown on 60 mm culture plates and exposed to drugs as indicated for the desired time. The cells were then scraped out, washed in ice cold 1× PBS and pelleted down at 13000 rpm for 2 min. The pelleted cells were suspended in 150 μL of ice-cold whole cell lysis buffer[(20 mMTris of pH 7.4, 250 mM NaCl, 2 mM EDTA, 0.1% Triton, 1 mM DTT (1,4-dithiothreitol), 0.5 mM PMSF, 4 mM sodium orthovanadate, aprotinin (5 mg m/L) and leupeptin (5 mg m/L)] and kept in ice for 30 min, with intermittent vortexing every 5 min. After incubation, the lysate was centrifuged at 13000 rpm for 10 min at 4° C. and the supernatant was collected. The total protein content in the lysate was estimated by Bradford's method, and was then denatured by boiling with 5× loading dye before separating the proteins by SDSpolyacrylamidegel electrophoresis (SDS-PAGE). Following electrophoresis, the polyacrylamide gel and a PVDF membrane were equilibrated with Towbins buffer (1 L, 25 mM Tris, 192 mM glycine, 20% (v/v) methanol (pH 8.3) for 15-30 min and the separated proteins were electro-transferred to PVDF membrane (Hybond-P, GE Healthcare Life science) using Bio-Rad Mini PROTEAN III wet blot apparatus at 100 V for 2 h at cold conditions. After the transfer, the membrane was rinsed with TBS-T (20 mM Tris pH 7.5, 150 mM NaCl, 0.1% Tween 20) buffer and stained with Ponceau-S to ensure uniform transfer. After washing off the Ponceau stain with TBST, the membrane was exposed to 5% fat free milk in TBST buffer for 1 h at room temperature to block the nonspecific binding of antibodies, followed by overnight incubation with the primary antibody [1:1000 dilution] in 3% BSA in TBST buffer at 4° C. Excess antibody was washed off with TBST buffer and incubated with corresponding secondary antibody [1:5000 dilution] coupled with horse radish peroxidase (HRP) in 5% fat free milk in TBST buffer. The bands were visualized using enhanced chemiluminescence kit (Millipore, St Charles, Mo., United States) following manufacturer's protocol.
HepG2 was transiently transfected with Beclin siRNA and control siRNA using Lipofectamine LTX Plus reagent kit according to manufacturer's protocol (Invitrogen, USA). 0.35×10^6cells per well were seeded in a six well tissue culture plate containing 2 ml antibiotic-free normal growth medium supplemented with FBS and the cells were incubated to attain 60% confluency. Beclin siRNA duplex solution (Solution A) was added directly to the dilute transfection reagent (LP LTX plus reagent) (Solution B). The solution was mixed gently by pipetting up and down and incubated for 45 minutes at room temperature. The cells were washed gently with 2 ml of transfection medium (optiMEM medium). […]

HepG2 cells [2] = test: MTT assay of Uttroside B with autophagy inhibitor; format: cell-based, human; conditions: 3 MA 1 mM, 72 h
LC3 in HepG2 cells = test: Autophagy flux (LC3I to LC3II conversion) with Bafilomycin; format: cell-based, human; conditions: HepG2, LC3 II accumulation
Experimental: Concentration dependent effect of BafilomycinAl on the endogenous conversion of LC3I to LC3II in HepG2 cells. Cells were treated with Bafilomycin Al at different concentration and the whole cell lysate was resolved on a 15% gel and immunoblotted against LC3 antibody. Uttroside B is an autophagy inducer in HepG2 cells as analysed by autophagy flux using Bafilomycin Al. […] The increase in LC3 II could not be considered as a fool proof of autophagic induction because a blockage in any step leading from autophagosome maturation to its fusion with lysosomes could cause its accumulation. So, the effect of Uttroside B in HepG2 cells were analyzed for autophagy flux, a more accurate read out of autophagy on co-treatment with Bafilomycin, an autophagy-lysosome inhibitor. Bafilomycin A, blocks autophagy by blocking the fusion of autophagosome with lysosome which cause the accumulation of autophagosome or LC3. First, the concentration of Bafilomycin Al required for saturating the blockage of autophagy-lysosome fusion was standardized. The efficacy of Bafilomycin Al, in terms of blocking autophagosome degradation in HepG2, was found peaked at 10 nM, beyond which no further accumulation of LC3 II was noted, which matched with the earlier reports.^32,37,38 […]

[3] = literature ref 9; cell line not stated; cited from earlier work
HepG2 cells [4] = conditions: literature ref 14; read-out: IC50 against HepG2 cells; cited from earlier work
U937 leukemia cell line = conditions: literature ref 14; read-out: IC50, cytotoxicity against U937 leukemia cell line; cited from earlier work
human cancer cells = conditions: literature ref 22; cited from earlier work
HepG2 cells [5] = test: Cell cycle analysis by flow cytometry (propidium iodide); format: cell-based, human; conditions: HepG2, 25 μM, 24 h
Experimental: FIGS. 3A-3F show Uttroside B induces caspase-dependent apoptosis leading to PARP cleavage in HepG2 cells while being independent of cell cycle. FIGS. 3A-3E are images of Western blots showing caspase activation in HepG2 cells. Whole-cell extracts were prepared after treating HepG2 cells with indicated concentrations of Uttroside B for 48 h, the whole cell lysate was resolved on a 15% gel and subjected to western blotting using antibodies against the caspases 8, 9 & 7 detected by ECL. HepG2 cells were treated with Uttroside B for 48 h at different concentrations and the whole cell lysate was resolved on a 10% gel, immunoblotted against anti-PARP and detected by ECL. […] HepG2 cells were treated with Uttroside B for 48 h, stained with propidium iodide and the cell cycle analysis was done using fluorescence activated cell sorter. Curcumin 25 μM (24 h) is used as positive control.
Flow cytometry: Cell cycle analysis helps in distinguishing the distribution of a population of cells to the different stages of the cycle. Cell cycle analysis using flow cytometry was performed to investigate the cell cycle arrest induced by Uttroside B. Cell cycle analysis is performed by quantitative measurement of nuclear DNA content in a cell by staining DNA with propidium iodide. […]

[6] = literature refs 3, 25; cited from earlier work
HepG2 cells [7] = test: MTT cell viability assay in HepG2 cells; format: cell-based, human; conditions: Homo sapiens, HepG2, 72 h, read-out: IC50, cytotoxicity towards HepG2 cells
Experimental: Stocks of crude extracts and isolated compound of S. nigrum was prepared in DMSO for the in vitro studies and stored at −20° C. The DMSO concentration in all studies, including controls, was ≤0.2%. Cell viability assay was performed after 72 h of drug treatment while whole cell lysate preparation and cell cycle analysis were done after 24 h and 48 h of drug treatment. For studying NF-κB and AP-1, Uttroside B was incubated for 2 h before extraction.
MTT [3-(4,5-dimethylthiazole-2-yl)-2,5-diphenyltetrazolium bromide] assay is a standard colorimetric assay, suitable for analyzing proliferation, viability, and cytotoxicity. Briefly, the HepG2 cells were seeded in 96-well plates (2000 cells/well). […] Fresh media containing 25 μL of MTT solution (5 mg/mL in PBS) and 75 μL of complete medium was added to the wells and incubated for 2 h. At the end of incubation, lysis buffer (20% sodium dodecyl sulphate in 50% dimethyl formamide)was added to the wells (0.1 mL/well) and incubated for another 1 h at 37° C. At the end of incubation, the optical density was measured at 570 nm using ELISA plate reader (Bio-Rad). The relative cell viability in percentage was calculated as (A570 of treated samples/A570 of untreated samples)×100. The IC50 values were extrapolated from polynomial regression analysis of study data.^17

hepatocellular carcinoma = conditions: cited from earlier work

For Cn1cnc(N)c2ncnc1-2 [3-MA], the “effect of autophagy inhibitor on Uttroside B-induced caspase 9 activation” value [1] was “enhanced”, the “effect of autophagy inhibitor on Uttroside B-induced cleavage of PARP” value [1] was “enhanced” and the “effect of autophagy inhibitor on Uttroside B-induced cytotoxicity” value (HepG2 cells [2]) was “significantly enhanced”.
In the case of CO/C1=C\C(C)=C\[C@@H](C)[C@@H](O)[C@@H](C)C/C(C)=C/C=C/[C@H](OC)[C@@H]([C@@H](C)[C@@H](O)[C@H](C)[C@@]2(O)C[C@@H](O)[C@H](C)[C@@H](C(C)C)O2)OC1=O [Bafilomycin Al], the “concentration at which blocking of autophagosome degradation peaked” value (LC3 in HepG2 cells) is reported as 10 nM, the “effect of autophagy inhibitor on Uttroside B-induced caspase 9 activation” value [1] is reported as “enhanced” and the “effect of autophagy inhibitor on Uttroside B-induced cleavage of PARP” value [1] is reported as “enhanced”.
In the case of C[C@@H]1CC[C@@]2(OC1)O[C@H]1C[C@H]3[C@@H]4CC[C@H]5C[C@@H](O[C@@H]6O[C@H](CO)[C@H](O[C@@H]7O[C@H](CO)[C@@H](O)[C@H](O[C@@H]8OC[C@@H](O)[C@H](O)[C@H]8O)[C@H]7O[C@@H]7O[C@H](CO)[C@@H](O)[C@H](O)[C@H]7O)[C@H](O)[C@H]6O)CC[C@]5(C)[C@H]4CC[C@]3(C)[C@H]1[C@@H]2C [Degalactotigonin], the cytotoxicity [3] is given as 0.25 µM.
For C[C@H](CC[C@@]1(O)O[C@H]2C[C@H]3[C@@H]4CC[C@H]5C[C@@H](O[C@@H]6O[C@H](CO)[C@H](O[C@@H]7O[C@H](CO)[C@@H](O)[C@H](O[C@@H]8OC[C@@H](O)[C@H](O)[C@H]8O)[C@H]7O[C@@H]7O[C@H](CO)[C@H](O)[C@H](O)[C@H]7O)[C@H](O)[C@H]6O)CC[C@]5(C)[C@H]4CC[C@]3(C)[C@H]2[C@@H]1C)CO[C@@H]1O[C@H](CO)[C@@H](O)[C@H](O)[C@H]1O [Parvispinoside B], the IC50 (HepG2 cells [4]) is listed as > 100 µM and the IC50 (U937 leukemia cell line) is listed as 0.5 µM.
For C[C@H]1CC[C@@]2(OC1)O[C@H]1C[C@H]3[C@@H]4CC[C@@H]5C[C@@H](O)C[C@@H](O[C@@H]6OC[C@@H](O)[C@H](O)[C@H]6O[C@@H]6O[C@@H](C)[C@H](O)[C@@H](O)[C@H]6O)[C@]5(C)[C@H]4CC[C@]3(C)[C@H]1[C@@H]2C [RCE-4, (1β,3β,5β,25S)-spirostan-1,3-diol1-[α-L-rhamnopyranosyl-(1→2)-β-Dxylopyranoside]], the “growth inhibition and apoptosis” value (human cancer cells) is listed as “induce growth inhibition and apoptosis in human cancer cells”.
In the case of COc1cc(/C=C/C(=O)CC(=O)/C=C/c2ccc(O)c(OC)c2)ccc1O [curcumin, reference compound], the “effect on cell cycle (positive control)” value (HepG2 cells [5]) is reported as “readily induced cell cycle arrest at G2/M”.
For C[C@@H]1CC[C@@]2(OC1)O[C@H]1C[C@H]3[C@@H]4CC=C5C[C@@H](O)CC[C@]5(C)[C@H]4CC[C@]3(C)[C@H]1[C@@H]2C [diosgenin], the “effect on cell cycle” value [6] is given as “block cell cycle in G0/G1 phase”.
For C[C@@H]1CC[C@@]2(OC1)O[C@H]1C[C@H]3[C@@H]4CC[C@@H]5C[C@@H](O)CC[C@]5(C)[C@H]4CC[C@]3(C)[C@H]1[C@@H]2C [smilagenin], the “effect on cell cycle” value [6] is listed as “block cell cycle in G0/G1 phase”.
In the case of CNC(=O)c1cc(Oc2ccc(NC(=O)Nc3ccc(Cl)c(C(F)(F)F)c3)cc2)ccn1 [sorafenib], the IC50 (HepG2 cells [7]) is listed as 5.8 µM, the “prolongation of survival rate” value (hepatocellular carcinoma; HCC patients) is listed as “up to 20%” and the side effects (hepatocellular carcinoma; reported) is listed as “severe side effects”.
For C[C@@H]1CC[C@@]2(OC1)O[C@H]1C[C@H]3[C@@H]4CC[C@H]5C[C@@H](O)CC[C@]5(C)[C@H]4CC[C@]3(C)[C@H]1[C@@H]2C [tigogenin], the “effect on cell cycle” value [6] is listed as “no effect on cell cycle”.
